Experimental data from the NIST ThermoML archive (doi:10.1016/j.jct.2010.12.028).
Numbers after ± are expanded uncertainties.

Experiments:
[1] = excess molar enthalpy (molar enthalpy of mixing); xn = mol fraction of the nth substance listed; conditions: 308.15 K, 101 kPa, Liquid, two-drop calorimeter
[2] = xn = mol fraction of the nth substance listed; conditions: 101 kPa, Liquid; for speed of sound: Sing-around technique in a fixed-path interferometer; for mass density: Vibrating tube method

Cc1ccccc1N [2-methylaniline] + c1ccncc1
[1]
Conditions | excess molar enthalpy [kcal/mol]
x1 = 0.0397 | -0.052 ± 0.00239
x1 = 0.0728 | -0.0894 ± 0.00382
x1 = 0.1263 | -0.137 ± 0.00574
x1 = 0.1742 | -0.171 ± 0.00693
x1 = 0.2163 | -0.192 ± 0.00789
x1 = 0.2681 | -0.213 ± 0.0086
x1 = 0.3192 | -0.23 ± 0.00932
x1 = 0.3707 | -0.24 ± 0.0098
x1 = 0.4212 | -0.245 ± 0.01
x1 = 0.4826 | -0.247 ± 0.01
x1 = 0.5261 | -0.245 ± 0.01
x1 = 0.5815 | -0.241 ± 0.0098
x1 = 0.6327 | -0.23 ± 0.00932
x1 = 0.7026 | -0.213 ± 0.0086
x1 = 0.7735 | -0.187 ± 0.00765
x1 = 0.8177 | -0.165 ± 0.00669
x1 = 0.8802 | -0.123 ± 0.00502
x1 = 0.9723 | -0.0346 ± 0.00174

[2]
Conditions | mass density, 298.15 K [kg/m3] | mass density, 303.15 K [kg/m3] | mass density, 308.15 K [kg/m3] | speed of sound, 298.15 K [m/s] | speed of sound, 303.15 K [m/s] | speed of sound, 308.15 K [m/s]
x1 = 0.0652 | 980.854 ± 0.24 | 975.904 ± 0.24 | 970.897 ± 0.24 | 1431.7 ± 2.3 | 1411.5 ± 2.3 | 1391.8 ± 2.3
x1 = 0.1138 | 982.607 ± 0.24 | 977.714 ± 0.24 | 972.767 ± 0.24 | 1442.1 ± 2.3 | 1421.8 ± 2.3 | 1402.4 ± 2.3
x1 = 0.1277 | – | 978.889 ± 0.25 | – | – | – | –
x1 = 0.1477 | 983.731 ± 0.24 | – | 973.991 ± 0.24 | 1449.2 ± 2.3 | 1429 ± 2.3 | 1409.8 ± 2.3
x1 = 0.1853 | 984.895 ± 0.24 | 980.111 ± 0.24 | 975.253 ± 0.24 | 1457 ± 2.4 | 1436.9 ± 2.3 | 1417.8 ± 2.3
x1 = 0.2374 | 986.375 ± 0.24 | 981.65 ± 0.24 | 976.858 ± 0.24 | 1467.7 ± 2.4 | 1447.7 ± 2.3 | 1428.6 ± 2.3
x1 = 0.2686 | 987.172 ± 0.24 | 982.485 ± 0.24 | 977.748 ± 0.24 | 1474 ± 2.4 | 1454 ± 2.3 | 1435 ± 2.3
x1 = 0.3005 | 987.937 ± 0.23 | 983.289 ± 0.24 | 978.587 ± 0.24 | 1480.3 ± 2.4 | 1460.4 ± 2.3 | 1441.4 ± 2.3
x1 = 0.3526 | 989.058 ± 0.23 | 984.461 ± 0.23 | 979.835 ± 0.23 | 1490.5 ± 2.4 | 1470.6 ± 2.3 | 1451.7 ± 2.3
x1 = 0.4104 | 990.119 ± 0.23 | 985.592 ± 0.23 | 981.051 ± 0.23 | 1501.4 ± 2.4 | 1481.7 ± 2.4 | 1462.7 ± 2.3
x1 = 0.4837 | 991.237 ± 0.23 | 986.789 ± 0.23 | 982.322 ± 0.23 | 1514.8 ± 2.4 | 1495.3 ± 2.4 | 1476.3 ± 2.3
x1 = 0.5238 | 991.751 ± 0.23 | 987.335 ± 0.23 | 982.917 ± 0.23 | 1522 ± 2.4 | 1502.6 ± 2.4 | 1483.6 ± 2.3
x1 = 0.5641 | 992.187 ± 0.23 | 987.803 ± 0.23 | 983.434 ± 0.23 | 1529.1 ± 2.4 | 1509.6 ± 2.4 | 1490.6 ± 2.4
x1 = 0.6231 | 992.73 ± 0.23 | 988.386 ± 0.23 | 984.067 ± 0.23 | 1539.3 ± 2.4 | 1519.7 ± 2.4 | 1500.7 ± 2.4
x1 = 0.6974 | 993.253 ± 0.23 | 988.955 ± 0.23 | 984.698 ± 0.23 | 1551.7 ± 2.4 | 1531.8 ± 2.4 | 1513.1 ± 2.4
x1 = 0.7678 | 993.622 ± 0.23 | 989.362 ± 0.23 | 985.142 ± 0.23 | 1563.4 ± 2.4 | 1542.9 ± 2.4 | 1524.3 ± 2.4
x1 = 0.8236 | 993.838 ± 0.23 | 989.613 ± 0.23 | 985.416 ± 0.23 | 1572.5 ± 2.4 | 1551.6 ± 2.4 | 1532.9 ± 2.4
x1 = 0.8622 | 993.969 ± 0.23 | 989.756 ± 0.23 | 985.573 ± 0.23 | 1578.9 ± 2.4 | 1557.4 ± 2.4 | 1538.6 ± 2.4
x1 = 0.9621 | 994.245 ± 0.23 | 990.097 ± 0.23 | 985.933 ± 0.23 | 1595.9 ± 2.4 | 1572.2 ± 2.4 | 1553.2 ± 2.4
